Usually MIC stands for the least concentration at which growth counts as inhibited.

Converted amounts (≈) assume the structure as drawn.

The subject of one test is Pityrosporum ovale. In words: Serial dilution test for Pityrosporum ovale. It is filed as cell-based. Particulars: Malassezia furfur, 168 h, 27° C. for 7 days, read-out: MIC, S.D.T., Pityrosporum ovale. On the procedure:
Serial dilution test for Corynebacterium acnes and Pityrosporum ovale Nutrient medium
For Corynebacterium acnes: thioglycolate-broth for Pityrosporum ovale: Littmann's broth, 5 ml per tube.
Suspension of microorganisms in 0.9% sodium chloride solution, standardized using a photometer according to Eppendorf by means of a suspension for comparison consisting of barium sulfate, for Corynebacterium acnes in a dilution of 1:100, for Pityrosporum ovale in an undiluted state. 0.1 ml of the suspensions was used per test tube. Dimethyl sulfoxide served as a solvent for the substances.
The suspension with Corynebacteria acnes was incubated at 37° C. for 48 hours, the suspension of Pityrosporum ovale at 27° C. for 7 days. The reading was effected by macroscopic evaluation of the growth of microorganisms and registration of the minimal inhibitory concentration.

Test [1] relates to Pityrosporum ovale CBS 1878. Kind of test: Agar diffusion test for Pityrosporum ovale CBS 1878. The format is cell-based. To be noted: Malassezia furfur, CBS1878, 168 h, 7 days at 27° C., read-out: MIC, A.D.T., Pityrosporum ovale. On the procedure: Agar diffusion test for Pityrosporum ovale CBS 1878 Nutrient medium
Littmann's agar, 23 ml per Petri dish, diameter of dish 100 mm.
Suspension of microorganisms in 0.9% sodium chloride solution, standardized using a photometer according to Eppendorf by means of a suspension for comparison consisting of barium sulfate. 0.05 ml per plate were used. The test substances were dissolved in dimethyl sulfoxide. The incubation time was 7 days at 27° C.; the area of inhibition in mm was measured, 0.05 ml of the solution of the substance were used for each punch-hole of a diameter of 6 mm. The results of these tests are recorded in the following tables 1 and 2: […]
A general note: In agar diffusion tests the substance spreads into inoculated agar from a disc or well.

The subject of test [2] is Trichophyton mentagrophytes AT CC 9129. Kind of test: Serial dilution test. It is filed as cell-based. Particulars: ATCC9129, 168 h, 27° C. for 7 days, read-out: MIC, S.D.T., Trichophyton mentagrophytes. On the procedure: (§1) The inhibitory effect on bacteria and fungi was examined by the serial dilution test and the agar diffusion test (hole-test). As bacteria were used: Staphylococcus aureus SG 511, Streptococcus Aronson, Streptococcus pyogenes At CC 86 68; as fungi: Candida albicans AT CC 10231, Trichophyton mentagrophytes AT CC 9129 and Aspergillus niger.
(§2) 3. Sabouraud broth: for C. alb., Trich. mnt., A. niger
(§3) The age of the primary cultures is 24 hours for bacteria and 14 days for fungi. The standardization of the suspension of microorganisms is effected using a photometer according to Eppendorf (test tube .phi.14 mm, filter 546 nm) and a suspension for comparison consisting of barium sulfate, this suspension being created by adition of 3.0 ml of 1% barium chloride solution to 97 ml of 1% sulfuric acid. After the standardization the bacteria were further diluted to a concentration of 1:1000 by means of sodium chloride solution, the fungi were used in an undiluted state.
(§4) 40 mgm of the substance were put into a 10 ml measuring flask and filled up to the mark with the solvent (corresponds to a dilution of 1:250=4000 μg/ml). The further dilution series was standardized with distilled water or the respective solvent and the following substance concentrations were prepared: 1000; 250; 62.5 μg/ml.
(§5) The tubes were filled with 4.9 ml of the corresponding liquid nutrient medium. Then 0.1 ml of the substance dilution prepared above was added to each tube, so that the mentioned final concentrations were present. Finally each tube was inoculated with 0.1 ml of the standardized suspension of microorganisms. Control tests merely using the solvent are to be carried out simultaneously.
(§6) Bacteria were incubated at 37° C. for 18-20 hours and fungi at 27° C. for 7 days.
(§7) The measurement is carried out macroscopically defining the minimal inhibitory concentration (the lowest still microbiostatically effective concentration).

Test [3] has as its system Aspergillus niger. Kind of test: Serial dilution test. It is filed as cell-based. Particulars: Aspergillus niger, 168 h, 27° C. for 7 days, read-out: MIC, S.D.T., Aspergillus niger. On the procedure:
as §1, §2, §3, §4, §5, §6, §7

In test [4] the test system is Candida albicans AT CC 10231. In words: Serial dilution test. The format is cell-based. Particulars: for MIC: Candida albicans, ATCC10231, 168 h, 27° C. for 7 days, read-out: MIC, S.D.T., Candida albicans. On the procedure: as §1, §2, §3, §4, §5, §6, §7
Test [5] has as its system Trichophyton mentagrophytes AT CC 9129. In words: Agar diffusion test (hole-test). Particulars: ATCC9129, 168 h, 27° C. for 7 days, read-out: MIC, A.D.T., Trichophyton mentagrophytes. The format is cell-based. On the procedure:
as §1
(§8) 3. Sabouraud agar: for C. alb., Trich. ment., A. niger
(§9) The age of the primary cultures is 24 hours for bacteria and 14 days for fungi. The standardization of the suspension of microorganisms is effected using a photometer according to Eppendorf (test tube .phi.14 mm, filter 546 nm) and a suspension for comparison consisting of barium sulfate, this suspension being created by addition of 3.0 ml of 1% barium chloride solution to 97 ml of 1% sulfuric acid. After the standardization St. aureus SG 511 was diluted 1:1000 and Sc. pyogenes and Aronson 1:100 by means of sodium chloride solution. The fungi were used in an undiluted state.
(§10) 40 mgm of the substance were put into a 10 ml measuring flask and filled up to the mark with the solvent (corresponds to a dilution of 1:250=4000 μg/ml).
(§11) The dilutions to the concentrations under test were effected with distilled water or the respective solvent.
(§12) 19 ml of the nutrient medium were filled into sterile Petri dishes of a diameter of 8 cm and dried. Subsequently the agar plates were charged with 4 ml of seed agar. 100 ml of seed agar contain 1.25 ml of the suspension of microorganisms, an agar plate thus containing 0.05 ml of the suspension of microorganisms. After solidification of the agar, 5 holes of a diameter of 5 mm were punched into the plates and filled with 0.05 ml of the correspondingly concentrated substance solution.
(§13) Control tests merely using the solvent are to be carried out simultaneously.
as §6
(§14) The diameter of the area of inhibition in mm was measured after having deducted the diameter of the hole.

Test [6] relates to Aspergillus niger. Kind of test: Agar diffusion test (hole-test). The format is cell-based. To be noted: 168 h, 27° C. for 7 days, read-out: MIC, A.D.T., Aspergillus niger. How it is done: as §1, §8, §9, §10, §11, §12, §13, §6, §14
Test [7] has as its system Candida albicans AT CC 10231. Kind of test: Agar diffusion test (hole-test). The format is cell-based. Particulars: ATCC10231, 168 h, 27° C. for 7 days, read-out: MIC, A.D.T., Candida albicans. How it is done: as §1, §8, §9, §10, §11, §12, §13, §6, §14
In a further test the test system is HeLa-cell culture. In words: Inhibition of HeLa cell cultures. It is filed as cell-based. Particulars: Homo sapiens, 72 h, 37° C. for 3 days, 5% carbon dioxide. How it is done:
Measurement of the inhibition of cell cultures
HeLa-cell culture was treated with trypsin and adjusted to a cell number of 150,000 cells/ml of fresh medium. The substance was always dissolved in the same quantity of dimethyl sulfoxide and then further diluted with growth medium. 0.1 ml of the substance-dilutions were added to each well of microtiter plates and then 0.2 ml of cell suspension were added (4 wells per dilution). Several growth controls containing 0.1 ml of growth medium instead of 0.1 ml of substance dilution were put up. After careful mixing, the cultures were incubated at 37° C. for 3 days in a 5% carbon dioxide atmosphere. The reading was effected in comparison with these controls. The results were given as the percentage of the deficiency and degeneration compared to the growth control. […] The statements are referred to μg of substance per ml of total medium.

Test [8] addresses glucose-6-phosphate-dehydrogenase. Kind of test: Inhibition of glucose-6-phosphate-dehydrogenase (G6PDH). The format is biochemical. On the procedure: Measurement of the inhibition of the glucose-6-phosphatedehydrogenase
The equilibrium was observed:
Glucose-6-phosphate+NADP^+ G6-DH gluconic
acid-6-phosphate+NADPH+H^+
(NADP=nicotinamide-adenine-dinycleotide-phosphate, G6P-DH=gluconic acid-6-phosphate-dehydrogenase)
The formation velocity of NADPH is a measure for the enzyme activity; it may be observed by means of the extinction increase at 340, 334 or 366 nm per unit of time.
0.025 ml of glucose-6-phosphate-dehydrogenase (Boehringer Mannheim) were filled up to 10 ml of distilled water (solution I). 100 mgm of nicotinamide-adenine-dinucleotide-phosphate were dissolved in 13 ml of distilled water (solution II). 47.2 mgm of glucose-6-phosphate were dissolved in further 10 ml of distilled water (solution 3). Simultaneously a buffer solution (solution IV) was prepared as follows: 0.28 gm of triethanolamine-hydrochloride and 1.461 gm of ethylene diaminotetraacetic acid-disodium salt were dissolved in 1 liter of distilled water and adjusted to a pH of 7.6 with sodium hydroxide solution. The substance under test was dissolved in dimethyl formamide or ethanol (solution V). Tested concentrations: 50; 25; 12.5; 6.25; 3.125; 1.56 and 0.78 μg/ml.
0.1 ml of solution I, 0.1 ml of solution II, 2.67 ml of solution IV and 0.03 ml of solution V were mixed and kept at 25° C. for 5 minutes. Then 0.1 ml of solution III was added, mixed and the alteration of extinction was determined spectrophotometrically at 366 nm for 3 minutes.
0.1 ml of solution I, 0.1 ml of solution II, 2.67 ml of solution IV and 0.03 ml of solution V were mixed and kept at 37° C. for 60 minutes. Then 0.1 ml of solution III was added, mixed and the alteration of extinction was measured spectrophotometrically at 366 nm for 3 minutes.
The inhibitory values were calculated from the average values of three measurements (alteration of extinction per minute) compared with controls, which received the pure solvent as the inhibitory solution. Then the ED50 was calculated according to Reed and Muench from the inhibitory values for the various concentrations.

`CCCCCCCCCCc1cc(C(=O)C(F)(F)F)c(O)cc1O` [W, 2,4-Dihydroxy-5-n-decyl-trifluoroacetophenone]: the MIC was 80 µg/mL (≈ 231 µM) in the test on Pityrosporum ovale; 250 µg/mL (≈ 722 µM) in [1]; 1.25 µg/mL (≈ 3.61 µM) in test [2]; 5 µg/mL (≈ 14.4 µM) with Aspergillus niger [3]; not above 15.6 µg/mL in test [5]; 250 µg/mL (≈ 722 µM) in the test on Aspergillus niger [6]. For the same compound, in test [7], the MIC is 1000 µg/mL (≈ 2890 µM). Moreover, the “Concentration with reduced growth (value in brackets), S.D.T., Candida albicans” value in [4] (reduced growth at this concentration) is 20 µg/mL.

With `Cc1c(O)ccc(C(=O)C(F)(F)C(F)(F)F)c1O` [V, 2,4-Dihydroxy-3-methyl-pentafluoropropiophenone], the IC50 with HeLa-cell culture (read-out: ED50, HeLa cell culture) turned out to be 1.5 µg/mL (≈ 5.55 µM). In addition, the minimal effective concentration in the test on HeLa-cell culture (read-out: Minimal inhibitory concentration, HeLa cell culture) was not above 0.78 µg/mL. The MIC is 20 µg/mL (≈ 74 µM) with Pityrosporum ovale; 4000 µg/mL (≈ 14800 µM) in [1]; 20 µg/mL (≈ 74 µM) in [2]; more than 80 µg/mL in the test with Aspergillus niger [3]; 80 µg/mL (≈ 296 µM) in test [4]; 250 µg/mL (≈ 925 µM) in test [5]. Moreover, the MIC in the test with Aspergillus niger [6] is more than 4000 µg/mL; in test [7], 4000 µg/mL (≈ 14800 µM).

Regarding `O=C(c1cc(Cl)c(O)cc1O)C(F)(F)F` [U, 2,4-Dihydroxy-5-chloro-trifluoroacetophenone], the minimum inhibitory concentration (MIC) with Pityrosporum ovale was found to be 10 µg/mL (≈ 41.6 µM); in test [1], 1000 µg/mL (≈ 4160 µM); in test [2], 5 µg/mL (≈ 20.8 µM); with Aspergillus niger [3], 20 µg/mL (≈ 83.1 µM); in test [4] it was 20 µg/mL (≈ 83.1 µM); in [5], 250 µg/mL (≈ 1040 µM). In addition, the minimal inhibitory concentration (MIC) is 250 µg/mL (≈ 1040 µM) in the test with Aspergillus niger [6] and 1000 µg/mL (≈ 4160 µM) in test [7].

Regarding `CC(C)c1c(O)c(Cc2cc(C(=O)C(F)(F)F)c(O)c(C(C)C)c2O)cc(C(=O)C(F)(F)F)c1O` [Z, Methylene-bis-(2,4-dihydroxy-3-isopropyl-5-trifluoro-acetyl)-benzene], the “G6PDH-inhibition Ed50, Immediate Inhibition” value in [8] (25° C. for 5 minutes preincubation) was 0.58 µg/mL. Also, the “G6PDH-inhibition Ed50, Inhibition of Incubation” value in [8] (37° C. for 60 minutes preincubation) was 0.13 µg/mL.
